Results as given in doi:10.1101/2022.02.27.481963v1 (biorxiv, 2022).
One block for each molecule: values may come before it.

How the values were obtained:
[1] = test system: fused MjGMPS; assay: continuous absorbance at […] nm, GMP formation; assay type: biochemical, Methanocaldococcus jannaschii; conditions: ATPPase site, pH 7.0, 70 °C
[2] = substrate: O=c1[nH]c(=O)c2ncn([C@@H]3O[C@H](COP(=O)(O)O)[C@@H](O)[C@H]3O)c2[nH]1; assay: purified protein; assay type: biochemical, Methanocaldococcus jannaschii; conditions: pH 7.0, 70 °C

Km ([1]; saturating ATP.Mg2+): 44 ± 1 µM
Molecule: O=c1[nH]c(=O)c2ncn([C@@H]3O[C@H](COP(=O)(O)O)[C@@H](O)[C@H]3O)c2[nH]1 [XMP]

Molecule: Nc1ncnc2c1ncn2[C@@H]1O[C@H](COP(=O)(O)OP(=O)(O)OP(=O)(O)O)[C@@H](O)[C@H]1O [ATP.Mg^2+]
Km ([1]; Mg2+ complex, saturating XMP): 503 ± 6 µM

B1: MjATPPase (Methanocaldococcus jannaschii DSM 2661) (protein)
chain: MFDPKKFIDEAVEEIKQQISDRKAIIALSGGVDSSVAAVLTHKAIGDKLTAVFVDTGLMRKGEREEVEKTFRDKLGLNLIVVDAKDRFLNALKGVTDPEEKRKIIGKLFIDVFEEIAEDIKAEVLVQGTIAPDWIETQGKIKSHHNVALPHGMVLEVVEPLRELYKDEVRLLAKELGLPDSIVYRQPFPGPGLAVRVLGEVTEEKLNICREANAIVEEEVKKANLDKDLWQYFAVVLDCKATGVKGDEREYNWIVALRMVKSLDAMTAHVPEIPFDLLKRISKRITSEIPNVARVVFDITDKPPATIEFE
Km ([2]; NH4Cl dependent, saturating ATP.Mg2+ and NH4Cl): 30 ± 2 µM

B2: MjGMPS (MjATPPase + MjGATase), ATPPase site (Methanocaldococcus jannaschii DSM 2661) (protein)
chain: MFDPKKFIDEAVEEIKQQISDRKAIIALSGGVDSSVAAVLTHKAIGDKLTAVFVDTGLMRKGEREEVEKTFRDKLGLNLIVVDAKDRFLNALKGVTDPEEKRKIIGKLFIDVFEEIAEDIKAEVLVQGTIAPDWIETQGKIKSHHNVALPHGMVLEVVEPLRELYKDEVRLLAKELGLPDSIVYRQPFPGPGLAVRVLGEVTEEKLNICREANAIVEEEVKKANLDKDLWQYFAVVLDCKATGVKGDEREYNWIVALRMVKSLDAMTAHVPEIPFDLLKRISKRITSEIPNVARVVFDITDKPPATIEFE
Km ([2]; Gln dependent, saturating ATP.Mg2+ and Gln): 61 ± 3 µM
